Experimental data published in patent publication US8278298B2, “Inhibition of tau-tau-association” (Wista Laboratories Ltd., priority 1995, dated 2012).
“Also recorded” adds a separate entry of the source. Each block holds one molecule with its values, some of them ahead of it.

Columns and labels:
[1] = systemic administration; cited from earlier work
[2] = target: T1, tau-tau binding (truncated core tau unit of the PHF / full-length tau T40) (Homo sapiens, UniProt P10636); test: Tau-tau binding assay (truncated core tau unit in solid phase, tau in aqueous phase); settings: for Ki: standard competitive inhibition model
T1 construct: the truncated core tau unit terminating at Ala-390 (“a”); made in house; host or cells: E. coli BL21 (DE3), plasmid pRK172
Source text: Particularly preferred is the following configuration for tau-tau binding assays (FIG. 10): A tau fragment, preferably a recombinant tau fragment, corresponding to the truncated tau unit of the core PHF is bound to a solid phase, e.g. a conventional ELISA plate, in buffer conditions which have been shown not to favour tau-tau association. […] The solid phase is usually poly(vinyl-chloride), but may be other polymers such as cellulose, polyacrylamide, nylon, polystyrene or polypropylene. The solid supports may be in the form of tubes, beads, discs or micro plates, or any other surfaces suitable for conducting an assay, and which on passive binding of tau protein, exposes the high affinity tau capture site. Following binding, the solid phase-antibody complex is washed in preparation for the test sample.
Next, a truncated unit terminating at Glu-391 was incubated. Only the lafter could be detected as mAb 423 immunoreactivity. […] Therefore plating of the core tau unit for passive binding to solid phase matrix was carried out in this buffer. If desired, a depolymerised tubulin preparation or a preparation of microtubules in the same buffer can be plated for passive binding for determination of tau-tubulin binding. Suitable agents for blocking excess binding sites are milk extract, bovine serum albumin, gelatine, etc. […]
FIG. 8: Tau binding assay configuration in which binding of two truncated units is measured. […]
FIG. 10: Standard configuration for measurement of binding of full-length tau (“t”) to the truncated core tau unit previously bound passively to the solid phase (“a”). […] Binding is detected by an appropriate antibody, which recognises an epitope located near the N-terminus of full-length tau.
(§1) FIG. 20: Selective inhibition of tau-tau-binding by thionine. […] The Ki values were calculated using the Kd values obtained from the corresponding binding studies using full-length tau. […]
The assay is carried out in a 96-well PVC microtitre plate, with solutions added and readings taken with respect to individual wells: […]

[3] = tested on: 3T3 cells; test: Toxicity of inhibitors in 3T3 cells; type: cell-based, mouse
Description: (§2) Mouse fibroblast 3T3 cells were transfected with a eukaryotic expression vector (pIF2) containing full-length and truncated forms of tau protein under constitutive control by a β-globin promotor. This vector contains a neomycin resistance gene as a selectable marker (pSV2neo; Sambrook et al. (1989), loc. cit.; modified by M. N. Neuberger). Cells were cultured in […] (DMEM) containing antimicrobial agents and 10% foetal calf serum at 37° C. in an atmosphere of 5% CO2. They were transfected with plasmid DNA either using a standard calcium phosphate protocol or by lipofection (according to manufacturers protocol; Gibco BRL). Cells which had integrated the plasmid DNA were selected by viability in medium containing Geneticin (0.5 mg/ml; Southern and Berg (1982), J. Mol. Appl. Genet. 1, 327).
The toxicity of the truncated core tau unit might be reversible in part if the prototype phenothiazine inhibitors could be used to block self-aggregation in vivo. This would be feasible only if the compounds were not intrinsically toxic at concentrations needed to block tau-tau binding. […] In practice, 3T3 cells could be grown several month in the presence of 2 μM thionine.

[4] = target: tau-tubulin binding (depolymerised tubulin coated, tau incubated) (Homo sapiens, UniProt P10636); test: Tau-tubulin binding assay; settings: read-out: Ki for inhibition of the tau-tubulin binding interaction in vitro
Description: A method of determining any possible interference, i.e. binding of tau or a derivative thereof to tubulin molecules, comprises contacting a depolymerised tubulin preparation, or preparation of taxol-stabilised microtubules with an agent suspected of being capable of modulating or inhibiting pathological tau-tau association and a tau compound mentioned in above step c) followed by detection of the tau-tubulin binding.
Next, a truncated unit terminating at Glu-391 was incubated. Only the lafter could be detected as mAb 423 immunoreactivity. […] Therefore plating of the core tau unit for passive binding to solid phase matrix was carried out in this buffer. If desired, a depolymerised tubulin preparation or a preparation of microtubules in the same buffer can be plated for passive binding for determination of tau-tubulin binding. Suitable agents for blocking excess binding sites are milk extract, bovine serum albumin, gelatine, etc. […] No binding of full-length tau was seen without prior plating of the core tau unit in the solid phase. When both species were present, binding was seen to depend on concentration of both species. […]
as §1

[5] = tested on: tau/MAP2 binding interaction (foetal MAP2C); test: Tau/MAP2 binding in the standard binding assay; settings: truncated tau/MAP2C and MAP2C/full-length tau configurations
Source text: One possible explanation for the lack of MAP2 in PHFs might be that MAP2 in PHFs might be MAP2 is unable to bind to the core tau unit of the PHF because of sequence differences in the repeat regions. This was examined experimentally using the standard binding assay in two configurations: truncated tau in the solid phase with foetal MAP2C in the aqueous phase, and MAP2C in the solid phase with full-length tau in the aqueous phase. […] Thus, aggregation in the tandem-repeat region is not selective for tau, and the inhibitory activity of phenothiazine inhibitors such as thionine is not dependent on sequences unique to tau. The reason why MAP2 is not found in PHFs is at present unknown, but factors may include the contribution of the large N-terminal domain found in the adult form of MAP2, compartment differences within the cell, or other differences in processing of the MAP2 molecules.

[6] = tested on: 3T3 fibroblast transfected with full-length tau protein; test: Cytoskeletal distribution of tau in 3T3 fibroblasts transfected with full-length tau; type: cell-based, mouse
Description: as §2
The influence of thionine on the tau-tubulin binding interaction was examined in vivo by culturing 3T3 fibroblast transfected with full-length tau protein in the presence of thionine at a range of concentrations.

[7] = tested on: 3T3 cells transfected with truncated tau; test: Viability of 3T3 cells transfected with truncated tau; type: cell-based, mouse; settings: grown in higher concentrations of thionine
Description: as §2
The number of viable cell lines transfected with truncated tau increased when the cells were grown in the presence of higher concentrations of thionine.

[8] = tested on: 3T3 cells transfected with PIF2::T40; test: Lipofectin/tau protein transfer into 3T3 cells expressing full-length tau; type: cell-based, mouse; settings: truncated tau transferred via lipofectin, all three concentrations of truncated tau; thionine 1 μM
Description: FIG. 30: Lipofectin/tau protein transfers into 3T3 cells transfected with PIF2::T40. Relative cell survival (normalised to cell counts after Lipofectin treatment without protein) is shown for approximately equimolar concentrations of full-length (T40, 220 nM) and truncated tau (dGAE, 300 nM), without (unshaded) or with shaded) thionine at 1 μM. Truncated tau is more toxic than full-length tau (p=0.02), despite the fact that at equimolar concentrations, the total protein load is 5× greater in the case of full-length tau.
FIGS. 31A and 31B: (FIG. 31A) Reversal of truncated tau toxicity: The toxicity of truncated tau transferred via lipofectin into 3T3 cells expressing full-length tau is concentration dependent. […] (FIG. 31B) Similar experiment in which full-length tau was transferred via lipofectin into 3T3 cells expressing full-length. Both toxicity and thionine effects were much less apparent.

[9] = tested on: PC-12 cells; test: pNFH aggregates and neurite incorporation in PC-12 cells; type: cell-based; settings: for Frequency of cells with pNFH aggregates: after db-cAMP, with thionine
Description: (§3) Neuronal cell lines (N2A, NIE-115) were cultured in DMEM containing 2% or 10% foetal calf serum and 5% horse serum on tissue culture plates coated with collagen. These were all grown at 37° C. in an atmosphere containing 5% CO2. Initial immunohistochemical studies of neuronal cell lines prior to transfection led to the identification of cytoplasmic aggregates immunoreactive with mAb 423 forming in the cytoplasm of undifferentiated neuroblastoma cells (N2A cells) and in PC-12 cells after brief treatment with dibutyryl-cAMP (db-cAMP, known to differentiate neuroblastoma cells in tissue culture). […] In the course of differentiation, this endogenous mAb 423 immunoreactivity was seen to shift from the cytoplasm to neurites. Immunoprecipitation of mAb423 immunoreactivity from these cells led to the identification of a species with gel mobility of 230 kDa which was recognised by SMI-31. […] We refer to them as presumptive-NFH aggregates (pNFH).
PC-12 cells were transfected with the pIF2 vector containing either the PHF-core tau fragment truncated at Glu-391 or full-length tau protein. As with 3T3 fibroblasts, no viable cell lines transfected with truncated tau were produced unless cells were grown in thionine following transfection. Once stahilised, transfected cell lines were analysed in the presence or absence of db-cAMP and in the presence and absence of thionine. Two end-points were examined: formation of cytoplasmic pNPH aggregates, and distribution of pNFH immunoreactivity into neurites.

[10] = tested on: NIE-115 cells; test: pNFH aggregates and neurite incorporation in NIE-115 cells; type: cell-based
Description: as §3
Rather, pNFH immunoreactivity was normally incorporated into growing neurites during the course of differentiation, although an early perinuclear-arc stage was also seen. NIE cells were transfected as above with the pIF2 vector containing either full-length or truncated tau protein and grown in the presence of thionine. The effects of adding db-cAMP in the presence or absence of thionine were then examined.

[11] = tested on: neuronal cell lines; test: Toxicity for neuronal cell lines; type: cell-based; settings: concentrations up to 2 μM

T1 sequence (P10636 614-707 limits assumed): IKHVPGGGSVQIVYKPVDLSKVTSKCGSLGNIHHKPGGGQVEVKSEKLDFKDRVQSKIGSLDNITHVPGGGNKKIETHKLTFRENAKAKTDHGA
tau-tubulin binding (depolymerised tubulin coated, tau incubated), sequence (P10636 1-441 isoform P10636-8): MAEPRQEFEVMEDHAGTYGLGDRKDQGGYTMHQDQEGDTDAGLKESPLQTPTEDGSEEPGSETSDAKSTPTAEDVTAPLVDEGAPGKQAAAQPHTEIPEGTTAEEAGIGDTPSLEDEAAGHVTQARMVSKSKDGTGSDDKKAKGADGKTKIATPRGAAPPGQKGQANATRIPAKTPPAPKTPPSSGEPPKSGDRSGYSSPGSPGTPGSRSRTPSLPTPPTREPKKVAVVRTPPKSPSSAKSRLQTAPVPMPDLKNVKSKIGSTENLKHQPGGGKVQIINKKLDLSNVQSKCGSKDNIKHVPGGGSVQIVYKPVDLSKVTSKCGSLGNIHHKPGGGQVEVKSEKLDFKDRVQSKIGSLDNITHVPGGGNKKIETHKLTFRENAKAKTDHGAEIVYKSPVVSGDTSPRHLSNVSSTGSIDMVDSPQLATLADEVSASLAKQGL

Molecule: CN(C)c1ccc2nc3ccc(=[N+](C)C)cc-3sc2c1 [methylene blue]
CNS penetration [1]: CNS penetration following systemic administration has been described

Ki [2]: 100 nM
Molecule: acriflavin [reference compound]
Toxicity in 3T3 cells / fibroblasts [3]: lowest toxicity

Ki [2]: 100 nM
Ki [4]: 8000 nM
Effect on tau/MAP2 binding interaction [5]: blocked
Molecule: thionine
Toxicity in 3T3 cells / fibroblasts [3]: lowest toxicity; also recorded: does not appear to have substantial intrinsic toxicity
Concentration at which 3T3 cells could be grown several months ([3]; prolonged culture): 2000 nM
Concentration causing disruption of normal cytoskeletal distribution of tau immunoreactivity [6]: 4 to 8 µM
Effect on cytoskeletal distribution of tau ([6]; concentration range 0.5-2 μM): no effect
Number of viable cell lines transfected with truncated tau [7]: increased
Reversal of truncated tau toxicity [8]: significantly reversed toxicity
pNFH-neurite index ([9]; PC-12 cells transfected with truncated tau, with thionine (0.04 without)): 0.49
Frequency of cells with pNFH aggregates ([9]; all transfected cells (49% after withdrawal)): 27%
Frequency of cells with pNFH aggregates ([9]; cells transfected with full-length tau (32% after withdrawal)): 16%
Frequency of cells with pNFH aggregates ([9]; cells transfected with truncated tau (60% after withdrawal)): 36%
Inhibition of pNFH aggregates in the cytoplasm ([9]; untransfected PC-12 cells): Dose-dependent inhibition
pNFH-neurite index ([10]; NIE-ND1, after db-cAMP, with thionine as printed (0.66 without)): 0.1
Proportion of cells containing pNFH aggregates ([10]; NIE-ND6, transfected with truncated tau, with thionine (44% after withdrawal)): 14%
Incorporation of transgenic tau protein into the microtubular cytoskeleton ([10]; cells transfected with full-length tau): did not interfere
Proportion of cells containing pNFH aggregates ([10]; cells transfected with full-length tau, with thionine (16% after withdrawal)): 7%
Toxicity for neuronal cell lines [11]: not toxic

Binding to the core tau unit ([2]; introduced in the aqueous phase): incapable of pathological binding
Molecule: POTr: fetal rat tau
